Bridge positions count the residues as written; N and C are the ends. Square brackets hold non-standard residues; d marks the D form. Peptide text beside a SMILES is read from it. * marks the point of attachment. ξ: configuration not given here. Bip(4'-NHAc) = CC(=O)Nc1ccc(-c2ccc(C[C@H](N)C(=O)O)cc2)cc1; Phe(4-COOH) = N[C@@H](Cc1ccc(C(=O)O)cc1)C(=O)O; Bip = N[C@@H](Cc1ccc(-c2ccccc2)cc1)C(=O)O; Phe(3-Me) = Cc1cccc(C[C@H](N)C(=O)O)c1; 4Pal = N[C@@H](Cc1ccncc1)C(=O)O; Cha = N[C@@H](CC1CCCCC1)C(=O)O; Cit = NC(=O)NCCC[C@H](N)C(=O)O; Ile(3ξ) = CCC(C)[C@H](N)C(=O)O; Thr(3ξ) = CC(O)[C@H](N)C(=O)O; Pip = O=C(O)[C@@H]1CCCCN1; Carboxymethyl = O=C(O)C*; NMeA = CN[C@@H](C)C(=O)O; Nle = CCCC[C@H](N)C(=O)O; Orn = NCCC[C@H](N)C(=O)O; Dab = NCC[C@H](N)C(=O)O
These compounds were tested against T1, PE-labeled human PD-L1-Ig binding to Jurkat cell line over-expressing human PD-1 (Jurkat-PD-1) (Homo sapiens, UniProt Q15116) (assay: Jurkat-PD-1 Cell Binding High-Content Screening Assay (CBA): Method 1). Conditions: Jurkat-hPD-1 cells, PE-labeled PD-L1-Ig 20 nM final; read-out: Jurkat HPDL1 PD1 IC50 (uM) (Method 1).
T1 construct: expressed in transfected cells; host or cells: Jurkat
T1 sequence (Q15116 25-288): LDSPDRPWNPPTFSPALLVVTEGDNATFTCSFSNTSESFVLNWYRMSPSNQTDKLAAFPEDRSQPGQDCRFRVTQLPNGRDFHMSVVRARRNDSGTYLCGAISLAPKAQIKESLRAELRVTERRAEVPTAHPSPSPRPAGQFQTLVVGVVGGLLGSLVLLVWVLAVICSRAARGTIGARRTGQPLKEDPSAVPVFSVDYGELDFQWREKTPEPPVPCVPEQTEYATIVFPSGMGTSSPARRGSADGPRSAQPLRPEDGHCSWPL
`CCC(C)[C@@H]1NC(=O)[C@H](Cc2ccc(-c3ccccc3)cc2)NC(=O)[C@H](C(C)C)NC(=O)[C@H](Cc2c[nH]c3ccccc23)NC(=O)[C@H](CC(=O)O)NC(=O)[C@H](Cc2ccc(O)cc2)NC(=O)[C@H](Cc2ccncc2)NC(=O)CSC[C@@H](C(=O)N[C@@H](C)C(N)=O)NC(=O)[C@H](C(C)O)NC(=O)[C@H](C(C)C)NC(=O)[C@H](CC2CCCCC2)NC(=O)[C@H](Cc2c[nH]cn2)NC(=O)[C@@H](CC(C)C)NC(=O)[C@H](C)N(C)C1=O` (stereo partly drawn) [Compound 2093] ({CH2CO}-[4Pal]YDWV[Bip][Ile(3ξ)][NMeA][dL]H[Cha]V[Thr(3ξ)]CA-NH2; thioether N-14) was tested, and the IC50 was 0.11 µM.
In the case of `CC[C@H](C)[C@@H]1NC(=O)[C@H](Cc2ccc(-c3ccccc3)cc2)NC(=O)[C@H](C(C)C)NC(=O)[C@H](Cc2c[nH]c3ccccc23)NC(=O)[C@H](CC(=O)O)NC(=O)[C@H](Cc2ccc(O)cc2)NC(=O)[C@H](CC(N)=O)NC(=O)CSC[C@@H](C(=O)N[C@@H](C)C(N)=O)NC(=O)[C@H]([C@@H](C)O)NC(=O)[C@H](C(C)C)NC(=O)[C@H](CC(C)C)NC(=O)[C@H](CCN)NC(=O)[C@@H](CC(C)C)NC(=O)[C@@H]2CCCCN2C1=O` [Compound 1399] ({CH2CO}-NYDWV[Bip]I[Pip][dL][Dab]LVTCA-NH2; thioether N-14), the IC50 is reported as 0.14 µM.
For `Cc1cccc(C[C@@H]2NC(=O)[C@H](CC(=O)O)NC(=O)[C@H](Cc3ccc(OCC(=O)O)cc3)NC(=O)[C@H]([C@@H](C)O)NC(=O)CSC[C@@H](C(N)=O)NC(=O)[C@H](CCC(=O)O)NC(=O)[C@H](C(C)C)NC(=O)[C@H](CC3CCCCC3)NC(=O)[C@H](CC(N)=O)NC(=O)[C@@H](CC(C)C)NC(=O)[C@H](C)N(C)C(=O)[C@H](Cc3ccc(OCC(=O)O)cc3)NC(=O)[C@H](Cc3ccc(-c4ccccc4)cc3)NC(=O)[C@H](Cc3ccc(OCC(=O)O)cc3)NC2=O)c1` [Compound 1679] ({CH2CO}-TY(Carboxymethyl)D[Phe(3-Me)]Y(Carboxymethyl)[Bip]Y(Carboxymethyl)[NMeA][dL]N[Cha]VEC-NH2; thioether N-14), the IC50 was 0.23 µM.
`CC(C)C[C@@H]1NC(=O)[C@H](CCCN)NC(=O)[C@@H](CC(C)C)NC(=O)[C@H](C)N(C)C(=O)[C@H](CCCN)NC(=O)[C@H](Cc2ccc(-c3ccccc3)cc2)NC(=O)[C@H](C(C)C)NC(=O)[C@H](Cc2c[nH]c3ccccc23)NC(=O)[C@H](CC(=O)O)NC(=O)[C@H](Cc2ccc(O)cc2)NC(=O)[C@H](CC(N)=O)NC(=O)CSC[C@@H](C(=O)N[C@@H](C)C(N)=O)NC(=O)[C@H]([C@@H](C)O)NC(=O)[C@H](C(C)C)NC1=O` [Compound 1241] ({CH2CO}-NYDWV[Bip][Orn][NMeA][dL][Orn]LVTCA-NH2; thioether N-14) showed an IC50 of 0.02 µM.
`CC(C)C[C@@H]1NC(=O)[C@H](CCN)NC(=O)[C@@H](CC(C)C)NC(=O)[C@H](C)N(C)C(=O)[C@H](CCCNC(=N)N)NC(=O)[C@H](Cc2ccc(-c3ccccc3)cc2)NC(=O)[C@H](C(C)C)NC(=O)[C@H](Cc2c[nH]c3ccccc23)NC(=O)[C@H](CC(=O)O)NC(=O)[C@H](Cc2ccc(OCC(=O)O)cc2)NC(=O)[C@H](Cc2cnc[nH]2)NC(=O)CSC[C@@H](C(=O)N[C@@H](C)C(N)=O)NC(=O)[C@H]([C@@H](C)O)NC(=O)[C@H](C(C)C)NC1=O` [Compound 1150] ({CH2CO}-HY(Carboxymethyl)DWV[Bip]R[NMeA][dL][Dab]LVTCA-NH2; thioether N-14) showed an IC50 of 0.05 µM.
In the case of `CC(C)C[C@@H]1NC(=O)[C@H](Cc2c[nH]c3ccccc23)NC(=O)[C@H](CC(=O)O)NC(=O)[C@H](Cc2ccc(C(=O)O)cc2)NC(=O)[C@H](CC(N)=O)NC(=O)CSC[C@@H](C(=O)N[C@@H](C)C(N)=O)NC(=O)[C@H](CO)NC(=O)[C@H](C(C)C)NC(=O)[C@H](CC(C)C)NC(=O)[C@H](CC(N)=O)NC(=O)[C@@H](C)NC(=O)[C@H](C)N(C)C(=O)[C@H](C(C)C)NC(=O)[C@H](Cc2ccc(-c3ccccc3)cc2)NC1=O` [Compound 1754] ({CH2CO}-N[Phe(4-COOH)]DWL[Bip]V[NMeA][dA]NLVSCA-NH2; thioether N-14), the IC50 is reported as 0.03 µM.
Compound `CC(=O)Nc1ccc(-c2ccc(C[C@@H]3NC(=O)[C@H](C(C)C)NC(=O)[C@H](Cc4c[nH]c5ccccc45)NC(=O)[C@H](CC(=O)O)NC(=O)[C@H](Cc4ccc(O)cc4)NC(=O)[C@H](Cc4ccccc4)NC(=O)CSC[C@@H](C(=O)N[C@@H](C)C(N)=O)NC(=O)[C@H]([C@@H](C)O)NC(=O)[C@H](C(C)C)NC(=O)[C@H](CC(C)C)NC(=O)[C@H](CCCNC(=N)N)NC(=O)[C@@H](CC(C)C)NC(=O)[C@H](C)N(C)C(=O)[C@H](CCCNC(=N)N)NC3=O)cc2)cc1` [Compound 1067] ({CH2CO}-FYDWV[Bip(4'-NHAc)]R[NMeA][dL]RLVTCA-NH2; thioether N-14) has an IC50 of 0.12 µM.
For `CC(C)C[C@@H]1NC(=O)[C@H](CCCNC(=N)N)NC(=O)[C@@H](CC(C)C)NC(=O)[C@H](C)N(C)C(=O)[C@H](CCCNC(=N)N)NC(=O)[C@H](Cc2ccc(-c3ccccc3)cc2)NC(=O)[C@H](C(C)C)NC(=O)[C@H](Cc2c[nH]c3ccccc23)NC(=O)[C@H](CC(=O)O)NC(=O)[C@H](Cc2ccncc2)NC(=O)[C@H](Cc2ccccc2)NC(=O)CSC[C@@H](C(=O)N[C@@H](C)C(N)=O)NC(=O)[C@H]([C@@H](C)O)NC(=O)[C@H](C(C)C)NC1=O` [Compound 1085] ({CH2CO}-F[4Pal]DWV[Bip]R[NMeA][dL]RLVTCA-NH2; thioether N-14), the IC50 was 0.07 µM.
`Cc1cccc(C[C@@H]2NC(=O)[C@H](CC(=O)O)NC(=O)[C@H](Cc3ccncc3)NC(=O)[C@H](Cc3ccc(OCC(=O)O)cc3)NC(=O)CSC[C@@H](C(=O)N[C@@H](C)C(N)=O)NC(=O)[C@H](CO)NC(=O)[C@H](C(C)C)NC(=O)[C@H](CC(C)C)NC(=O)[C@H](CC(N)=O)NC(=O)[C@@H](C)NC(=O)[C@H](C)N(C)C(=O)[C@H](C(C)C)NC(=O)[C@H](Cc3ccc(-c4ccccc4)cc3)NC(=O)[C@H](CC(C)C)NC2=O)c1` [Compound 1583] ({CH2CO}-Y(Carboxymethyl)[4Pal]D[Phe(3-Me)]L[Bip]V[NMeA][dA]NLVSCA-NH2; thioether N-14) was tested, and the IC50 was 0.01 µM.
`CCCC[C@@H]1NC(=O)CSC[C@@H](C(=O)NCC(N)=O)NC(=O)[C@H](CO)NC(=O)[C@H](C(C)C)NC(=O)[C@H](CC(C)C)NC(=O)[C@H](CC(=O)O)NC(=O)[C@H](CC(N)=O)NC(=O)[C@H](C)N(C)C(=O)[C@H](C(C)C)NC(=O)[C@H](Cc2ccc(-c3ccccc3)cc2)NC(=O)[C@H](CC(C)C)NC(=O)[C@H](Cc2c[nH]c3ccccc23)NC(=O)[C@H](CC(=O)O)NC(=O)[C@H](Cc2ccc(O)cc2)NC1=O` [Compound 1828] ({CH2CO}-[Nle]YDWL[Bip]V[NMeA]NDLVSCG-NH2; thioether N-14) showed an IC50 of 0.82 µM.
In the case of `CC(C)C[C@@H]1NC(=O)[C@H](CCCNC(=N)N)NC(=O)[C@@H](CC(C)C)NC(=O)[C@H](C)N(C)C(=O)[C@H](CCCNC(N)=O)NC(=O)[C@H](Cc2ccc(-c3ccccc3)cc2)NC(=O)[C@H](C(C)C)NC(=O)[C@H](Cc2c[nH]c3ccccc23)NC(=O)[C@H](CC(=O)O)NC(=O)[C@H](Cc2ccc(O)cc2)NC(=O)[C@H](CC(N)=O)NC(=O)CSC[C@@H](C(=O)NCC(N)=O)NC(=O)[C@H](CO)NC(=O)[C@H](C(C)C)NC1=O` [Compound 1246] ({CH2CO}-NYDWV[Bip][Cit][NMeA][dL]RLVSCG-NH2; thioether N-14), the IC50 is reported as 0.05 µM.

Reference: US20240409585A1, “MACROCYCLIC IMMUNOMODULATORS” (priority 2021, published 2024)
